{
  "source": "paper PMC6445170",
  "about": "“VEGFR-2 inhibitors and apoptosis inducers: synthesis and molecular design of new benzo[g]quinazolin bearing benzenesulfonamide moiety” (Journal of Enzyme Inhibition and Medicinal Chemistry, 2017)",
  "target": "T1, VEGFR-2 (Homo sapiens, UniProt P35968)",
  "T1 construct": "gene KDR; not described; endogenous activity said to be determined in MCF-7 cells, but compounds were incubated with 'enzyme' (AlphaScreen)",
  "T1 sequence (P35968 20-1356)": "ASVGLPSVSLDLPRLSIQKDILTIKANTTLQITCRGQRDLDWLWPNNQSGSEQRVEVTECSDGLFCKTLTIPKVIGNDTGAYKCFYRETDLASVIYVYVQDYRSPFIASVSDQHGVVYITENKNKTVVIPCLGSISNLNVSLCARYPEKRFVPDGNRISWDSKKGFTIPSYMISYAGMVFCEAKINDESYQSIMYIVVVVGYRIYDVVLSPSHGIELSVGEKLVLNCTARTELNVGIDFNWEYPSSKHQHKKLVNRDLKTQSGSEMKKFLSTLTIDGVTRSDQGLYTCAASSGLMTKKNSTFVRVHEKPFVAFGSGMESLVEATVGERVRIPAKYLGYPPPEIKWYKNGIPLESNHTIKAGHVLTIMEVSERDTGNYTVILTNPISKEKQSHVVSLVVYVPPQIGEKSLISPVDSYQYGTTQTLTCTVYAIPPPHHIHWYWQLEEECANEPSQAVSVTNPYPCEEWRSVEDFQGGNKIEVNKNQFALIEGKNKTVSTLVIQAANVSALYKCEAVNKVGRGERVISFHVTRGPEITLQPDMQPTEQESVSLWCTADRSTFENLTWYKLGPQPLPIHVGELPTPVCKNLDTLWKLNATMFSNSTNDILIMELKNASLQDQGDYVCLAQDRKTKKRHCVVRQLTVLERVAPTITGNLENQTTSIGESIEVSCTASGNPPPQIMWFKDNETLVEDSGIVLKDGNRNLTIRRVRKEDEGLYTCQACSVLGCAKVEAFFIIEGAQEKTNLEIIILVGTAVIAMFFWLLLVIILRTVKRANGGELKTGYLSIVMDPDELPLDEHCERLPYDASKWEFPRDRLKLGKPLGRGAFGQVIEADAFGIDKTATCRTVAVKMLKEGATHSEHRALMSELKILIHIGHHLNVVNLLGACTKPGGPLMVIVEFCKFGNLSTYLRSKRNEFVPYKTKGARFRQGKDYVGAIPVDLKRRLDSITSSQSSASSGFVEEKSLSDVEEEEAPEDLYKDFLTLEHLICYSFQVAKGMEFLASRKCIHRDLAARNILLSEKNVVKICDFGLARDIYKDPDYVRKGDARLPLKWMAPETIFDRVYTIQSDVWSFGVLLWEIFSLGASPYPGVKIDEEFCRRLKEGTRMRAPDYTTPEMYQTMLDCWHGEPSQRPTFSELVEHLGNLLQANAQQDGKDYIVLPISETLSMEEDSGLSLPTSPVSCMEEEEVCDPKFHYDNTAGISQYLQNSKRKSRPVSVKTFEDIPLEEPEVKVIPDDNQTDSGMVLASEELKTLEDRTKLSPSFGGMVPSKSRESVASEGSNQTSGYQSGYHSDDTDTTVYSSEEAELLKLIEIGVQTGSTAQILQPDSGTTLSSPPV",
  "assay": "AlphaScreen kinase assay, phosphotyrosine antibody",
  "assay_type": "cell-based",
  "conditions": "5 min preincubation, room temperature, VEGFR-2 activity determined in MCF-7 cells; for IC50: read-out: IC50 on VEGFR-2 enzyme (μm)",
  "excerpt": "AlphaScreen kinase assay, phosphotyrosine antibody on VEGFR-2",
  "data": [
    {"molecule": "NNC(=O)CSc1nc2cc3ccccc3cc2c(=O)n1-c1ccc(S(N)(=O)=O)cc1", "note": "[compound 5, 4-(2-(2-Hydrazinyl-2-oxoethylthio)-4-oxobenzo[g]quinazolin-3(4H)-yl)benzenesulfonamide]", "values": [
      {"measurement": "% Inhibition of VEGFR-2 enzyme", "result": 68.44, "unit": "%"}
    ]},
    {"molecule": "Cc1ccc(C)c(C=NNC(=O)CSc2nc3cc4ccccc4cc3c(=O)n2-c2ccc(S(N)(=O)=O)cc2)c1", "note": "[compound 6, 4-(2-(2-(2-(2,5-Dimethylbenzylidene)hydrazinyl)-2-oxoethylthio)-4-oxobenzo[g]quinazolin-3(4H)-yl)benzenesulfonamide]", "values": [
      {"measurement": "% Inhibition of VEGFR-2 enzyme", "result": 69.95, "unit": "%"}
    ]},
    {"molecule": "Cc1ccc(C=NNC(=O)CSc2nc3cc4ccccc4cc3c(=O)n2-c2ccc(S(N)(=O)=O)cc2)cc1F", "note": "[compound 7, 4-(2-(2-(2-(3-Fluoro-4-methylbenzylidene)hydrazinyl)-2-oxoethylthio)-4-oxobenzo[g]quinazolin-3(4H)-yl)benzenesulfonamide]", "values": [
      {"measurement": "% Inhibition of VEGFR-2 enzyme", "setting": "inhibitor concentration not stated", "result": 72.19, "unit": "%"}
    ]},
    {"molecule": "NS(=O)(=O)c1ccc(-n2c(SCC(=O)NN=Cc3ccc(Cl)cc3Cl)nc3cc4ccccc4cc3c2=O)cc1", "note": "[compound 9, 4-(2-(2-(2-(2,4-Dichlorobenzylidene)hydrazinyl)-2-oxoethylthio)-4-oxobenzo[g]-quinazolin-3(4H)-yl)benzenesulfonamide]", "values": [
      {"measurement": "IC50", "result": 640, "unit": "nM"}
    ]},
    {"molecule": "NS(=O)(=O)c1ccc(-n2c(SCC(=O)NN=Cc3ccc(Br)cc3)nc3cc4ccccc4cc3c2=O)cc1", "note": "[compound 10, 4-(2-(2-(2-(4-Bromobenzylidene)hydrazinyl)-2-oxoethylthio)-4-oxobenzo[g]quinazolin-3(4H)-yl)benzenesulfonamide]", "values": [
      {"measurement": "% Inhibition of VEGFR-2 enzyme", "result": 64.89, "unit": "%"}
    ]},
    {"molecule": "NS(=O)(=O)c1ccc(-n2c(SCC(=O)NN=Cc3ccc4c(c3)OCO4)nc3cc4ccccc4cc3c2=O)cc1", "note": "[compound 11, 4-(2-(2-(2-(Benzo[d][1,3]dioxol-5-ylmethylene)hydrazinyl)-2-oxoethylthio)-4-oxobenzo[g]quinazolin-3(4H)-yl)benzenesulfonamide]", "values": [
      {"measurement": "% Inhibition of VEGFR-2 enzyme", "result": 71.29, "unit": "%"}
    ]},
    {"molecule": "NS(=O)(=O)c1ccc(-n2c(SCC(=O)N3NC(=O)CC3=O)nc3cc4ccccc4cc3c2=O)cc1", "note": "[compound 20, 4-(2-(2-(3,5-Dioxopyrazolidin-1-yl)-2-oxoethylthio)-4-oxobenzo[g]quinazolin-3(4H)-yl) benzenesulfonamide]", "values": [
      {"measurement": "IC50", "result": 860, "unit": "nM"}
    ]},
    {"molecule": "CCOC(=O)c1cnn(C(=O)CSc2nc3cc4ccccc4cc3c(=O)n2-c2ccc(S(N)(=O)=O)cc2)c1N", "note": "[compound 22, Ethyl 5-amino-1-(2-(4-oxo-3-(4-sulfamoylphenyl)-3,4-dihydrobenzo[g]quinazolin-2-ylthio)acetyl)-1H-pyrazole-4-carboxylate]", "values": [
      {"measurement": "IC50", "result": 830, "unit": "nM"}
    ]},
    {"molecule": "Cc1nn(C(=O)CSc2nc3cc4ccccc4cc3c(=O)n2-c2ccc(S(N)(=O)=O)cc2)c(N)c1C#N", "note": "[compound 23, 4-(2-(2-(5-Amino-4-cyano-3-methyl-1H-pyrazol-1-yl)-2-oxoethylthio)-4-oxobenzo[g]quinazo-lin-3(4H)-yl) benzenesulfonamide]", "values": [
      {"measurement": "IC50", "result": 1040, "unit": "nM"}
    ]}
  ]
}
